pIC50, pKi: −log10 of the molar value.
Assays:
rat P2X7 = rat P2X7 (Rattus norvegicus (Rat), UniProt Q64663); assay: Ca2+ flux (FLIPR) in 1321N1 cells expressing recombinant rat P2X7 channel; type: cell-based; settings: 250 μM BzATP;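 also: Calcium-4 dye fluorescence change read 180 s after agonist addition, following 30 min cell preincubation with test compound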
P2X7 [1] = molecular target: T1, P2X7 (Homo sapiens (Human), UniProt Q99572); assay: Ca2+ flux (FLIPR) in 1321N1 cells expressing recombinant human P2X7 channel; type: cell-based; settings: 250 μM BzATP;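 also: Calcium-4 dye-loaded cells exposed to compound for 30 min before agonist addition, fluorescence change read 180 s after agonist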
Experimental: Cells were seeded at a density of 25000 cells/well (96-well clear bottom black walled plates) in 100 μl volume/well. On the day of the experiment, cell plates were washed with assay buffer, containing (in mM): 130 NaCl, 2 KCl, 1 CaCl2, 1 MgCl2, 10 HEPES, 5 glucose; pH 7.40 and 300 mOs. After the wash, cells were loaded with the Calcium-4 dye (Molecular Device) and incubated in the dark for 60 minutes. Test compounds were prepared at 250× the test concentration in neat DMSO. Intermediate 96-well compound plates were prepared by transferring 1.2 μL of the compound into 300 μL of assay buffer. A further 3× dilution occurred when transferring 50 μL/well of the compound plate to 100 μL/well in the cell plate. Cells were incubated with test compounds and dye for 30 minutes. […] The fluorescence change was measured 180 seconds after adding the agonist.

P2X7 [2] = molecular target: T1, P2X7; assay: P2X7 antagonism in human PBMCs (LPS + Bz-ATP induced IL-1β release, ELISA); type: cell-based; settings: LPS 30 ng/ml, Bz-ATP 0.5 mM; for PBMC 10 μM (% control): compound 10 μM; for PBMC 1 μM (% control): compound 1 μM;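 as to all read-outs here: PBMCs from donor human blood, with a further 1.5 h incubation of the cells in the assay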
P2X7 [3] = molecular target: T1, P2X7; assay: Radioligand binding, tritiated A-804598, human P2X7-1321N1 cell membranes; settings: 1 hour at 4° C.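 Also: ki obtained from the binding IC50 after correction for tracer concentration and tracer affinity.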
Experimental: On the day of the experiment, cell membrane preparations were made according to standard published methods. […] The assay was terminated by filtration (GF/B filters pre-soaked with 0.3% PEI) and washed with washing buffer (Tris-HCl 50 mM). The IC50 generated in the binding assay was corrected for tracer concentration and affinity of the tracer to derive at the affinity (Ki) of the test compounds.

Sequence of rat P2X7 (Q64663 whole entry): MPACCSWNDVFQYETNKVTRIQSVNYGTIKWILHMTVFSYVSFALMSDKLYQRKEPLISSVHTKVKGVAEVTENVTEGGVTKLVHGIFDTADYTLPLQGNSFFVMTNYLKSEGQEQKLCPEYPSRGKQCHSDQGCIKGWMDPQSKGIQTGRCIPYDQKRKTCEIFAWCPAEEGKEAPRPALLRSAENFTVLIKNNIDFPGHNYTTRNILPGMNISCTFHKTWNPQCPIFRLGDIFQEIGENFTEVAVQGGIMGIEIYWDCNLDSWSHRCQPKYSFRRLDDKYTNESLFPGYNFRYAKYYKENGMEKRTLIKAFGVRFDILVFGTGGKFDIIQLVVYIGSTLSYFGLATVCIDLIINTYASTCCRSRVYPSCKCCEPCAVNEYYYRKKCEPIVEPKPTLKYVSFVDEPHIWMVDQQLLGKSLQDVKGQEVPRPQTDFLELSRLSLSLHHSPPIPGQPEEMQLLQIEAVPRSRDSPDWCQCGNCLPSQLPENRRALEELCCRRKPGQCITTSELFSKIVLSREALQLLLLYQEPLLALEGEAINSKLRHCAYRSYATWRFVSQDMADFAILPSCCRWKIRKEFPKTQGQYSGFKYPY
T1 sequence (Q99572 whole entry): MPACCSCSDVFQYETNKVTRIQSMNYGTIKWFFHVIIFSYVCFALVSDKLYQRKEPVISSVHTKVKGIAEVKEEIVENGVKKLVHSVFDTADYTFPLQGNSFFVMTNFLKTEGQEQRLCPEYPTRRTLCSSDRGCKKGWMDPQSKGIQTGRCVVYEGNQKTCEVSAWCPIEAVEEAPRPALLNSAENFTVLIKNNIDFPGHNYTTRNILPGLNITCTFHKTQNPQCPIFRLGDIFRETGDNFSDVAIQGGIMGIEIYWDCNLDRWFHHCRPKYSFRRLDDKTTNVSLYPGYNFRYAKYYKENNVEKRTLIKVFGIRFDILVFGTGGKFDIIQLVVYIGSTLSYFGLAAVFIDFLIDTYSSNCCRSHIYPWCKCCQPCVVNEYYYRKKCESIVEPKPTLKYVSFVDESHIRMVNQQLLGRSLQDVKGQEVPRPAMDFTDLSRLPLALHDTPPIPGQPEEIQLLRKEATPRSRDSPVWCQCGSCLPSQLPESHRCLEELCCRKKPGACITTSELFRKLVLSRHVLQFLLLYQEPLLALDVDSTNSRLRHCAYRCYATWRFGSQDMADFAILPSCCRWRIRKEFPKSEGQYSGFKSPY

Compound | pIC50 (rat P2X7) | pIC50 (P2X7 [1]) | PBMC 10 μM (% control) (P2X7 [2]) | pKi (P2X7 [3]) | PBMC 1 μM (% control) (P2X7 [2])
O=C(c1cccc(C(F)(F)F)c1Cl)N1CCc2c(-c3cnccn3)n[nH]c2C1 [Example 97, 6-{[2-Chloro-3-(trifluoromethyl)phenyl]carbonyl}-3-pyrazin-2-yl-4,5,6,7-tetrahydro-2H-pyrazolo[3,4-c]pyridine] | 5.64 | 8.35 | 12.7 % control | 7.70 | –
O=C(c1cccc(C(F)(F)F)c1F)N1CCc2c(ncn2-c2ccn[nH]2)C1 [Example 59, 5-{[2-Fluoro-3-(trifluoromethyl)phenyl]carbonyl}-1-(1H-pyrazol-5-yl)-4,5,6,7-tetrahydro-1H-imidazo[4,5-c]pyridine] | 6.28 | 6.42 | 10.2 % control | 6.30 | –
Cc1c(C(=O)N2CCc3c(nnn3-c3cnccn3)C2)cccc1C(F)(F)F [Example 276, (2-methyl-3-(trifluoromethyl)phenyl)(1-(pyrazin-2-yl)-6,7-dihydro-1H-[1,2,3]triazolo[4,5-c]pyridin-5(4H)-yl)methanone] | 6.06 | 8.19 | −0.9 % control | 8.24 | –
CC1c2nnn(-c3cc[nH]n3)c2C=CN1C(=O)c1cccc(C(F)(F)F)c1Cl (stereo not drawn) [Example 86, 5-{[2-Chloro-3-(trifluoromethyl)phenyl]carbonyl}-4-methyl-1-(1H-pyrazol-3-yl)-4,5-dihydro-1H-[1,2,3]triazolo[4,5-c]pyridine] | 6.87 | 7.89 | 13.0 % control | 7.40 | –
CN(C)C(=O)C1c2ncn(-c3ccccn3)c2CCN1C(=O)c1cccc(C(F)(F)F)c1Cl (stereo not drawn) [Example 34, 5-{[2-Chloro-3-(trifluoromethyl)phenyl]carbonyl}-N,N-dimethyl-1-pyridin-2-yl-4,5,6,7-tetrahydro-1H-imidazo[4,5-c]pyridine-4-carboxamide] | 6.80 | 6.80 | – | 6.20 | 29.8 % control
CC1Cc2c(nnn2-c2cc[nH]n2)CN1C(=O)c1cccc(C(F)(F)F)c1F (stereo not drawn) [Example 189, (2-fluoro-3-(trifluoromethyl)phenyl)(6-methyl-1-(1H-pyrazol-3-yl)-6,7-dihydro-1H-[1,2,3]triazolo[4,5-c]pyridin-5(4H)-yl)methanone] | 8.20 | 8.41 | 0.5 % control | 7.87 | –
O=C(C1c2ncn(-c3ccccn3)c2CCN1C(=O)c1cccc(C(F)(F)F)c1Cl)N1CCC1 (stereo not drawn) [Example 35, 4-(Azetidin-1-ylcarbonyl)-5-{[2-chloro-3-(trifluoromethyl)phenyl]carbonyl}-1-pyridin-2-yl-4,5,6,7-tetrahydro-1H-imidazo[4,5-c]pyridine] | 6.50 | 6.50 | – | 6.50 | 31.6 % control
O=C(c1cccc(C(F)(F)F)c1Cl)N1CCc2c(ncn2-c2ccccc2)C1 [Example 2, (2-Chloro-3-(trifluoromethyl)phenyl)(1-phenyl-6,7-dihydro-1H-imidazo[4,5-c]pyridin-5(4H)-yl)methanone] | 5.71 | 7.74 | – | 7.06 | 7.9 % control
C[C@H]1c2nnn(-c3cncnc3)c2CCN1C(=O)c1cccc(C(F)(F)F)c1Cl [Example 333, (S)-(2-chloro-3-(trifluoromethyl)phenyl)(4-methyl-1-(pyrimidin-5-yl)-6,7-dihydro-1H-[1,2,3]triazolo[4,5-c]pyridin-5(4H)-yl)methanone] | < 5.00 | 6.99 | 6.9 % control | 7.20 | –
Cc1c(C(=O)N2CCc3c(nnn3-c3cnccn3)C2C)cccc1C(F)(F)F (stereo not drawn) [Example 278, (4-methyl-1-(pyrazin-2-yl)-6,7-dihydro-1H-[1,2,3]triazolo[4,5-c]pyridin-5(4H)-yl)(2-methyl-3-(trifluoromethyl)phenyl)methanone] | 7.03 | 8.14 | −19.5 % control | 7.90 | –
CC1c2nnn(-c3ncccn3)c2CCN1C(=O)c1ccc(Cl)cc1Cl (stereo not drawn) [Example 283, (2,4-dichlorophenyl)(4-methyl-1-(pyrimidin-2-yl)-6,7-dihydro-1H-[1,2,3]triazolo[4,5-c]pyridin-5(4H)-yl)methanone] | 6.72 | 8.33 | −6.3 % control | 8.20 | –
O=C(c1cccc(C(F)(F)F)c1Cl)N1CCc2c(nnn2-c2ccn[nH]2)C1 [Example 68, 5-{[2-Chloro-3-(trifluoromethyl)phenyl]carbonyl}-1-(1H-pyrazol-5-yl)-4,5,6,7-tetrahydro-1H-[1,2,3]triazolo[4,5-c]pyridine] | 6.73 | 7.77 | 12.9 % control | 7.74 | –
O=C(c1cccc(C(F)(F)F)c1Cl)N1C=Cc2c(nnn2-c2ccccn2)C1 [Example 90, 5-{[2-Chloro-3-(trifluoromethyl)phenyl]carbonyl}-1-pyridin-2-yl-4,5-dihydro-1H-[1,2,3]triazolo[4,5-c]pyridine] | 6.01 | 7.99 | – | 7.53 | 13.3 % control
Cn1ccc(-n2nnc3c2CCN(C(=O)c2cccc(C(F)(F)F)c2Cl)C3)n1 [Example 127, (2-Chloro-3-(trifluoromethyl)phenyl)(1-(1-methyl-1H-pyrazol-3-yl)-6,7-dihydro-1H-[1,2,3]triazolo[4,5-c]pyridin-5(4H)-yl)methanone] | 7.05 | 7.66 | 9.2 % control | 7.40 | –
O=C(c1cccc(C(F)(F)F)c1Cl)N1CCc2c(-c3cncc(F)c3)n[nH]c2C1 [Example 95, 6-{[2-Chloro-3-(trifluoromethyl)phenyl]carbonyl}-3-(5-fluoropyridin-3-yl)-4,5,6,7-tetrahydro-2H-pyrazolo[3,4-c]pyridine] | < 5.00 | 6.69 | 14.4 % control | 6.50 | –
CC1CN(C(=O)c2cccc(C(F)(F)F)c2Cl)Cc2nnn(-c3ccccc3)c21 (stereo not drawn) [Example 245, (2-Chloro-3-(trifluoromethyl)phenyl)(7-methyl-1-phenyl-6,7-dihydro-1H-[1,2,3]triazolo[4,5-c]pyridin-5(4H)-yl)methanone] | 5.68 | 6.79 | −7.3 % control | 7.00 | –

More lines, in order of rising pIC50 (rat P2X7), values ahead:

pIC50 (rat P2X7) | pIC50 (P2X7 [1]) | PBMC 10 μM (% control) (P2X7 [2]) | pKi (P2X7 [3]) | PBMC 1 μM (% control) (P2X7 [2]) | Compound
5.68 | 7.10 | – | 7.42 | 34.7 % control | CCOC(=O)C1c2ncn(-c3cnccn3)c2CCN1C(=O)c1cccc(Cl)c1Cl (stereo not drawn) [Example 29, Ethyl 5-[(2,3-dichlorophenyl)carbonyl]-1-pyrazin-2-yl-4,5,6,7-tetrahydro-1H-imidazo[4,5-c]pyridine-4-carboxylate]
5.77 | 8.48 | 4.2 % control | 7.30 | – | CC1c2nnn(-c3ncc(F)cn3)c2CCN1C(=O)c1cccc(Cl)c1Cl (stereo not drawn) [Example 174, (2,3-Dichlorophenyl)(1-(5-fluoropyrimidin-2-yl)-4-methyl-6,7-dihydro-1H-[1,2,3]triazolo[4,5-c]pyridin-5(4H)-yl)methanone]
5.84 | 6.98 | 6.8 % control | 7.85 | – | O=C(c1cccc(C(F)(F)F)c1F)N1CCc2c(nnn2-c2cnccn2)C1 [Example 69, 5-{[2-Fluoro-3-(trifluoromethyl)phenyl]carbonyl}-1-pyrazin-2-yl-4,5,6,7-tetrahydro-1H-[1,2,3]triazolo[4,5-c]pyridine]
6.79 | 8.51 | −1.9 % control | 8.64 | – | Cc1c(C(=O)N2CCc3c(nnn3-c3ncccn3)C2)cccc1C(F)(F)F [Example 281, (2-methyl-3-(trifluoromethyl)phenyl)(1-(pyrimidin-2-yl)-6,7-dihydro-1H-[1,2,3]triazolo[4,5-c]pyridin-5(4H)-yl)methanone]
6.81 | 7.76 | 7.9 % control | 7.24 | – | CC1c2nnn(-c3ncccc3F)c2C=CN1C(=O)c1cccc(C(F)(F)F)c1Cl (stereo not drawn) [Example 82, 5-{[2-Chloro-3-(trifluoromethyl)phenyl]carbonyl}-1-(3-fluoropyridin-2-yl)-4-methyl-4,5-dihydro-1H-[1,2,3]triazolo[4,5-c]pyridine]
7.06 | 8.21 | – | 7.50 | 23.2 % control | CC1c2nnn(-c3ncccn3)c2C=CN1C(=O)c1cccc(C(F)(F)F)c1Cl (stereo not drawn) [Example 79, 5-{[2-Chloro-3-(trifluoromethyl)phenyl]carbonyl}-4-methyl-1-pyrimidin-2-yl-4,5-dihydro-1H-[1,2,3]triazolo[4,5-c]pyridine]
7.84 | 7.94 | −2.8 % control | 7.50 | – | Cc1cccc(-n2nnc3c2CCN(C(=O)c2cccc(C(F)(F)F)c2Cl)C3C)n1 (stereo not drawn) [Example 302, (2-chloro-3-(trifluoromethyl)phenyl)(4-methyl-1-(6-methylpyridin-2-yl)-6,7-dihydro-1H-[1,2,3]triazolo[4,5-c]pyridin-5(4H)-yl)methanone]
7.90 | 7.90 | 5.8 % control | 7.70 | – | CC1Cc2c(-c3ccnn3C)nn(C)c2CN1C(=O)c1cccc(C(F)(F)F)c1Cl (stereo not drawn) [Example 266, (2-chloro-3-(trifluoromethyl)phenyl)(1,5-dimethyl-3-(1-methyl-1H-pyrazol-5-yl)-4,5-dihydro-1H-pyrazolo[3,4-c]pyridin-6(7H)-yl)methanone]

— US9464084B2, “P2X7 modulators” (Janssen Pharmaceutica NV, priority 2013, dated 2016)
